# Read-outs that look alike come from different tables or passages of the source.
# How the values were obtained:
# Assay type in all cases: cell-based
# ICAM-1 gene expression [1] = assay: TNF-α induced ICAM-1 gene expression in primary rat aortic smooth muscle cells; details: for IC50: Rattus norvegicus
# Method: (§1) RASM cells and treatment. Rat aortic smooth muscle (RASM) cells were isolated from adult 180 g male Sprague-Dawley rats and provided by the Cell and Molecular Core Facility in the Department of Pharmacology at LSUHSC-NO. Isolated RASM cells were grown in M-199 media containing 10% fetal bovine serum (Gibco), 100 units/mL penicillin, and 100 µg/mL streptomycin, and incubated at 37° C. in 5% CO2. Cells for all assays were used between passages 3 and 5. Prior to treatments, cells were grown in M-199 media with 10% fetal bovine serum (FBS) until 30-50% confluent. For most assays, cells were treated with (R)-DOI, or other drugs as indicated, at specific concentrations for 24 hours, followed by TNF-α (10 ng/ml) and (R)-DOI at the same pretreatment concentrations in fresh M-199 media. After another 24 hours, the cells were scraped, pelleted, and processed for RNA.
# RNA isolation and Quantitative Realtime-PCR. RNA was extracted from cells using Illustra RNAspin Mini kits from GE Healthcare Life Sciences (Piscataway, N.J.) following protocols supplied by the manufacturer. First strand cDNA was generated using the ImProm-II cDNA synthesis kit (Promega) following the manufacturers protocols. Q-RT-PCR was performed using the ProbeLibrary system from Roche (Indianapolis, Ind.) in combination with the HotStart-IT probe qpcr master mix from USB Biological (Cleveland, Ohio) following manufactures protocols.
# Primers were synthesized by IDT (Coralville, Iowa). ProbeLibrary probes from Roche were: U3, U74, U13, U106, U79 for 5-HT2AR, ICAM-1, VCAM-1, IL-6, and cyclophillin B, respectively. Quantitative determination of gene expression levels using a 2-step cycling protocol was performed on a MyIQ-5 Cycler (Bio-Rad, Hercules Calif.). Relative gene expression levels were calculated using the 2^[−ΔΔC(T)] method. Levels of all targets from the test samples were normalized to rat cyclophillin B expression.
# To examine the effects of 5-HT2A receptor activation on TNF-α mediated proinflammatory gene expression, RASM cells were pretreated with (R)-DOI, a selective 5-HT2 receptor agonist, as described above. Dose-response curves were determined for the effects on ICAM-1, VCAM-1, and IL-6 gene expression for twelve different concentrations of (R)-DOI ranging from 0.1 pM to 100 nM, with each experiment repeated in triplicate. In FIGS. 1A-1C, the Y-axis represents a percent of TNF-α for the dose of (R)-DOI indicated on the X-axis.
# IL-6 gene expression = assay: TNF-α induced IL-6 gene expression in primary rat aortic smooth muscle cells; details: RASM passage 4, media with FBS, 24 h pretreatment, TNF-α 10 ng/ml, read-out: IC50 for proinflammatory gene expression inhibition for IL-6
# Method: as §1, with “For most assays, cells were treated with (R)-DOI, or other drugs as indicated, at specific concentrations for 24 hours, followed by TNF-α (10 ng/ml) and (R)-DOI at the same pretreatment concentrations in fresh M-199 media. After another 24 hours, the cells were scraped, pelleted, and processed for RNA.” left out
# RNA isolation and Quantitative Realtime-PCR. […]
# The sequences of primers used are: 5-HT2AR (5-hydroxytryptamine 2A receptor): forward primer 5′-[…]-3′ (SEQ ID NO: 1), reverse primer, 5′[…]-3′ (SEQ ID NO: 2); ICAM-1 (intracellular adhesion molecule 1): forward primer, 5′-[…]-3′ (SEQ ID NO: 3, reverse primer, 5′-[…]-3′ (SEQ ID NO: 4); VCAM-1 (vascular adhesion molecule 1): forward primer, 5′-[…]-3′ (SEQ ID NO: 5), reverse primer, 5′-[…]-3′ (SEQ ID NO: 6); IL-6 (interleukin-6): forward primer, 5′-[…] […]-3′ (SEQ ID NO: 7), reverse primer, 5′-[…]-3′ (SEQ ID NO: 8); and cyclophillin B (control amplicon): forward primer, 5′-[…]-3′ (SEQ ID NO: 9), reverse primer, 5′-[…]-3′ (SEQ ID NO: 10). […] Quantitative determination of gene expression levels using a 2-step cycling protocol was performed on a MyIQ-5 Cycler (Bio-Rad, Hercules Calif.). […]
# ICAM-1 gene expression [2] = assay: LPS stimulated ICAM-1 gene expression in primary rat aortic smooth muscle cells; details: 60 minute pretreatment, 100 nM
# Method: All treatments with 5-HT2A receptor agonists occurred 1 hour prior to the addition of TNF-alpha (10 ng/ml) or LPS (100 ng or […]) depending on the experiment. All RNA isolations, cDNA synthesis, QPCR gene expression assays examining ICAM1, VCAM1, and IL6, and data analysis were performed as described above in Example 1, except the primers were different for the human cell experiment. The human gene PCR primer sequences and universal probe numbers were as follows: cyclophillin (control amplicon; Probe U64): forward primer, 5′-[…]-3′ (SEQ ID NO: 11), reverse primer, 5′-[…]-3′ (SEQ ID NO: 12); and human ICAM-1 (Probe U71, intracellular adhesion molecule 1): forward primer, 5′-[…]-3′ (SEQ ID NO: 13), reverse primer, 5′-[…]-3′ (SEQ ID NO: 14).
# The effect of (R)-DOI (60 minute pretreatment) on the expression of ICAM-1 in primary rat aortic smooth muscle cells after stimulation with LPS was examined. […] At a higher dose of LPS (1 μg), there was no effect of (R)-DOI on the increase in ICAM-1.
smiles,measurement,setting,value
"COc1cc(C[C@@H](C)N)c(OC)cc1I [(R)-DOI, (R)-1-(2,5-dimethoxy-4-iodophenyl)-2-aminopropane]",block of TNF-α induced ICAM1 gene expression at 1 nM,"ICAM-1 gene expression [1]; 1 nM pretreatment, VCAM1 and IL6 identical",blocked gene expression
same,block of TNF-α effect on ICAM-1 expression with 24 hour and one hour pretreatments and simultaneous treatment,"ICAM-1 gene expression [1]; 1 nM, TNF-α 10 ng/ml",completely blocked
same,IC50,"ICAM-1 gene expression [1]; RASM passage 4, media with FBS, 24 h pretreatment, TNF-α 10 ng/ml, read-out: IC50 for proinflammatory gene expression inhibition for ICAM-1",19.5 pM
same,IC50,"ICAM-1 gene expression [1]; RASM passage 4, serum starved for 8 hours, read-out: IC50 for ICAM-1 gene expression inhibition in serum-free media",360 pM
same,IC50,IL-6 gene expression,10.3 pM
same,effect on ICAM-1 induction by low dose of LPS,ICAM-1 gene expression [2]; LPS 100 ng,able to block the response
same,effect on ICAM-1 increase by higher dose of LPS,ICAM-1 gene expression [2]; LPS 1 μg,no effect

# — patent US9642819B2, “Low dosage serotonin 5-HT2A receptor agonist to suppress inflammation” (BOARD OF SUPERVISORS OF LOUISIANA STATE UNIVERSITY AND …, priority 2008, dated 2017)
